By EC50 is commonly meant the concentration at which the effect is half-maximal. Read a high EC50 as lower potency in that assay.

From US20240246964A1 (Arbutus Biopharma Corporation, priority 2021, published 2024) come the findings set out here.

The target in this assay is human PD-L1 (Homo sapiens (Human), UniProt Q9NZQ7). Description: T cell activation luciferase reporter cell culture system (T Cell Activation Assay). The class given is cell-based. To be noted: luciferase reporter assay; PD-L1 aAPC/CHO-K1 cells with PD-1 effector Jurkat T cells.
Sequence of human PD-L1 (Q9NZQ7 19-290): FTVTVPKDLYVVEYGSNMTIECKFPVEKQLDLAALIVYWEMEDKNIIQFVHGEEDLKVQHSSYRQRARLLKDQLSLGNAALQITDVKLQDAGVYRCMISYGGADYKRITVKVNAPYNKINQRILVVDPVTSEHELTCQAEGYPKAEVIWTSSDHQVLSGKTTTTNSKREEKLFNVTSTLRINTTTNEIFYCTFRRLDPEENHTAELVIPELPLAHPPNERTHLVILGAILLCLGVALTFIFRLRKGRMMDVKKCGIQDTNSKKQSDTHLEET

In turn, `COc1cc(-c2nccc(-c3cccc(-c4ccc(CN(C)C5CCN(C(C)=O)CC5)c(OC)n4)c3Cl)c2Cl)ccc1CNC1CCOCC1` [Example 469, 1-(4-(((6-(2-chloro-3-(3-chloro-2-(3-methoxy-4-(((tetrahydro-2H-pyran-4-yl)amino)methyl)phenyl)pyridin-4-yl)phenyl)-2-methoxypyridin-3-yl)methyl)(methyl)amino)piperidin-1-yl)ethan-1-one] had a concentration giving a half-maximal response (EC50) of 79.3 nM. Consider `COc1cc(-c2nccc(-c3cccc(-c4ccc(CN(C)C[C@@H]5CCC(=O)N5)c(OC)n4)c3Cl)c2Cl)ccc1CN(C)C[C@@H]1CCC(=O)N1` [Example 472, (S)-5-((((6-(2-Chloro-3-(3-chloro-2-(3-methoxy-4-((methyl(((S)-5-oxopyrrolidin-2-yl)methyl)amino)methyl)phenyl)pyridin-4-yl)phenyl)-2-methoxypyridin-3-yl)methyl)(methyl)amino)methyl)pyrrolidin-2-one], for which it took 31.7 nM to reach a half-maximal effect (EC50).

The molecule `COc1nc(-c2cccc(-c3ccnc(-c4cc(OC)c5nc(CN6CCOCC6)cn5c4)c3Cl)c2Cl)ccc1CNC1CCN(C(C)=O)CC1` [Example 475, 1-(4-(((6-(2-Chloro-3-(3-chloro-2-(8-methoxy-2-(morpholinomethyl)imidazo[1,2-a]pyridin-6-yl)pyridin-4-yl)phenyl)-2-methoxypyridin-3-yl)methyl)amino)piperidin-1-yl)ethan-1-one] showed an EC50 of 3770 nM. This EC50 lies about 120-fold higher than the previous one. `COc1nc(-c2cccc(-c3ccnc(-c4cc(OC)c5nc(CN6CCC(F)(F)C6)cn5c4)c3Cl)c2Cl)ccc1CNC1CCN(C(C)=O)CC1` [Example 476, 1-(4-(((6-(2-Chloro-3-(3-chloro-2-(2-((3,3-difluoropyrrolidin-1-yl)methyl)-8-methoxyimidazo[1,2-a]pyridin-6-yl)pyridin-4-yl)phenyl)-2-methoxypyridin-3-yl)methyl)amino)piperidin-1-yl)ethan-1-one] registered an EC50 of at least 10000 nM. Then `COc1cc(-c2nccc(-c3cccc(-c4ccc(CNC5CCN(C(C)=O)CC5)c(OC)n4)c3Cl)c2Cl)ccc1CNCCN1CCNC(=O)C1` [Example 479, 4-(2-((4-(4-(3-(5-(((1-Acetylpiperidin-4-yl)amino)methyl)-6-methoxypyridin-2-yl)-2-chlorophenyl)-3-chloropyridin-2-yl)-2-methoxybenzyl)amino)ethyl)piperazin-2-one], with 59.3 nM; and `COCC(=O)N1CCC(NCc2ccc(-c3cccc(-c4ccnc(-c5ccc(CNC6CCN(C(C)=O)CC6)c(OC)c5)c4Cl)c3Cl)nc2OC)CC1` [Example 481, 1-(4-(((6-(3-(2-(4-(((1-Acetylpiperidin-4-yl)amino)methyl)-3-methoxyphenyl)-3-chloropyridin-4-yl)-2-chlorophenyl)-2-methoxypyridin-3-yl)methyl)amino)piperidin-1-yl)-2-methoxyethan-1-one], with 15.9 nM; and `COc1cc(-c2nccc(-c3cccc(-c4ccc(CNC5CCN(C(C)=O)CC5)c(OC)n4)c3Cl)c2Cl)ccc1CN1CC2(C1)CN(C(C)=O)C2` [Example 482, 1-(4-(((6-(3-(2-(4-((6-acetyl-2,6-diazaspiro[3.3]heptan-2-yl)methyl)-3-methoxyphenyl)-3-chloropyridin-4-yl)-2-chlorophenyl)-2-methoxypyridin-3-yl)methyl)amino)piperidin-1-yl)ethan-1-one], with 20.3 nM. In turn, `COc1cc(-c2nccc(-c3cccc(-c4ccc(CNC5CCSCC5)c(OC)n4)c3Cl)c2Cl)ccc1CNC1CCSCC1` [Example 484, N-((6-(2-Chloro-3-(3-chloro-2-(3-methoxy-4-(((tetrahydro-2H-thiopyran-4-yl)amino)methyl)phenyl)pyridin-4-yl)phenyl)-2-methoxypyridin-3-yl)methyl)tetrahydro-2H-thiopyran-4-amine] yielded a 50% effective concentration (EC50) of 195 nM. `COc1cc(-c2nccc(-c3cccc(-c4ccc(CN5CC6(CCN(C(C)=O)CC6)C5)c(OC)n4)c3Cl)c2Cl)ccc1CN1CC2(CCN(C(C)=O)CC2)C1` [Example 485, 1-(2-((6-(3-(2-(4-((7-Acetyl-2,7-diazaspiro[3.5]nonan-2-yl)methyl)-3-methoxyphenyl)-3-chloropyridin-4-yl)-2-chlorophenyl)-2-methoxypyridin-3-yl)methyl)-2,7-diazaspiro[3.5]nonan-7-yl)ethan-1-one] came in with an EC50 of 212 nM. `COc1nc(-c2ccnc(-c3cccc4c3CC[C@@H]4Nc3nc(OC)c(CNC[C@@H]4CCC(=O)N4)cc3C(F)(F)F)c2Cl)ccc1CNC1CCN(C(C)=O)CC1` [Example 486, (S)-5-((((6-(((S)-4-(5-(((1-Acetylpiperidin-4-yl)amino)methyl)-3′-chloro-6-methoxy-[2,4′-bipyridin]-2′-yl)-2,3-dihydro-1H-inden-1-yl)amino)-2-methoxy-5-(trifluoromethyl)pyridin-3-yl)methyl)amino)methyl)pyrrolidin-2-one]: the concentration for a half-maximal effect (EC50) worked out at 114 nM. Then `COc1cc(-c2nccc(-c3cccc(-c4ccc(CN5CCC(O)CC5)c(OC)n4)c3Cl)c2Cl)ccc1CNC1CCN(C(C)=O)CC1` [Example 487, 1-(4-((4-(3-Chloro-4-(2-chloro-3-(5-((4-hydroxypiperidin-1-yl)methyl)-6-methoxypyridin-2-yl)phenyl)pyridin-2-yl)-2-methoxybenzyl)amino)piperidin-1-yl)ethan-1-one], with 39.9 nM; and `COc1cc(-c2nccc(-c3cccc(-c4ccc(CN[C@H]5CC[C@H](OC)CC5)c(OC)n4)c3Cl)c2Cl)ccc1CNC1CCN(C(C)=O)CC1` [Example 488, 1-(4-((4-(3-Chloro-4-(2-chloro-3-(6-methoxy-5-((((1r,4r)-4-methoxycyclohexyl)amino)methyl)pyridin-2-yl)phenyl)pyridin-2-yl)-2-methoxybenzyl)amino)piperidin-1-yl)ethan-1-one], with 34 nM; and `COc1cc(-c2nccc(-c3cccc(-c4ccc(CNC5CCN(C(C)=O)CC5)c(OC)n4)c3Cl)c2Cl)ccc1CN1CCC[C@@H](O)C1` [Example 489, (R)-1-(4-(((6-(2-Chloro-3-(3-chloro-2-(4-((3-hydroxypiperidin-1-yl)methyl)-3-methoxyphenyl)pyridin-4-yl)phenyl)-2-methoxypyridin-3-yl)methyl)amino)piperidin-1-yl)ethan-1-one], with 28.5 nM. `COCC(=O)N1CCC(NCc2ccc(-c3cccc(-c4ccnc(-c5ccc(CN6CC7(CNC(=O)C7)C6)c(OC)c5)c4Cl)c3Cl)nc2OC)CC1` [Example 490, 2-(4-(3-Chloro-4-(2-chloro-3-(6-methoxy-5-(((1-(2-methoxyacetyl)piperidin-4-yl)amino)methyl)pyridin-2-yl)phenyl)pyridin-2-yl)-2-methoxybenzyl)-2,6-diazaspiro[3.4]octan-7-one]: a half-maximal response (EC50) required 17.9 nM. As for `COCC(=O)N1CCC(NCc2ccc(-c3cccc(-c4ccnc(-c5ccc(CN6CC7(C6)CN(C(C)=O)C7)c(OC)c5)c4Cl)c3Cl)nc2OC)CC1` [Example 491, 1-(4-(((6-(3-(2-(4-((6-Acetyl-2,6-diazaspiro[3.3]heptan-2-yl)methyl)-3-methoxyphenyl)-3-chloropyridin-4-yl)-2-chlorophenyl)-2-methoxypyridin-3-yl)methyl)amino)piperidin-1-yl)-2-methoxyethan-1-one], the figure is 31.8 nM; as for `COc1cc(-c2nccc(-c3cccc(-c4ccc(CNC5CCOCC5)c(OC)n4)c3Cl)c2Cl)ccc1CN1CC2(C1)CN(C(C)=O)C2` [Example 492, 1-(6-(4-(3-chloro-4-(2-chloro-3-(6-methoxy-5-(((tetrahydro-2H-pyran-4-yl)amino)methyl)pyridin-2-yl)phenyl)pyridin-2-yl)-2-methoxybenzyl)-2,6-diazaspiro[3.3]heptan-2-yl)ethan-1-one], 18.5 nM. As for `COc1cc(-c2nccc(-c3cccc(-c4ccc(CN5CC6(CNC(=O)C6)C5)c(OC)n4)c3Cl)c2Cl)ccc1CNC1CCOCC1` [Example 495, 2-((6-(2-Chloro-3-(3-chloro-2-(3-methoxy-4-(((tetrahydro-2H-pyran-4-yl)amino)methyl)phenyl)pyridin-4-yl)phenyl)-2-methoxypyridin-3-yl)methyl)-2,6-diazaspiro[3.4]octan-7-one], the figure is 22.8 nM; as for `COc1cc(-c2nccc(-c3cccc(-c4ccc(CN5CC6(CNC(=O)C6)C5)c(OC)n4)c3Cl)c2Cl)ccc1CN[C@H]1C[C@](C)(O)C1` [Example 496, 2-((6-(2-Chloro-3-(3-chloro-2-(4-((((1r,3r)-3-hydroxy-3-methylcyclobutyl)amino)methyl)-3-methoxyphenyl)pyridin-4-yl)phenyl)-2-methoxypyridin-3-yl)methyl)-2,6-diazaspiro[3.4]octan-7-one], 29.1 nM; as for `COc1cc(-c2nccc(-c3cccc(-c4ccc(CN5CC6(CNC(=O)C6)C5)c(OC)n4)c3Cl)c2Cl)ccc1CN1CC2(CC(O)C2)C1` [Example 497, 2-((6-(2-Chloro-3-(3-chloro-2-(4-((6-hydroxy-2-azaspiro[3.3]heptan-2-yl)methyl)-3-methoxyphenyl)pyridin-4-yl)phenyl)-2-methoxypyridin-3-yl)methyl)-2,6-diazaspiro[3.4]octan-7-one], 30.2 nM.

Turning to `COc1cc(-c2nccc(-c3cccc(-c4ccc(CN5CC6(CNC(=O)C6)C5)c(OC)n4)c3Cl)c2Cl)ccc1CN1CC(C)(O)C1` [Example 498, 2-((6-(2-Chloro-3-(3-chloro-2-(4-((3-hydroxy-3-methylazetidin-1-yl)methyl)-3-methoxyphenyl)pyridin-4-yl)phenyl)-2-methoxypyridin-3-yl)methyl)-2,6-diazaspiro[3.4]octan-7-one], a half-maximal effect (EC50) was put at 26.5 nM. Molecule `COc1cc(-c2nccc(-c3cccc(-c4ccc(CN5CC6(CNC(=O)C6)C5)c(OC)n4)c3Cl)c2Cl)ccc1CN[C@H]1CC[C@H](O)CC1` [Example 502, 2-((6-(2-Chloro-3-(3-chloro-2-(4-((((1r,4r)-4-hydroxycyclohexyl)-amino)-methyl)-3-methoxyphenyl)pyridin-4-yl)phenyl)-2-methoxypyridin-3-yl)methyl)-2,6-diazaspiro[3.4]octan-7-one] returned a 50% effective concentration (EC50) of 28.9 nM.
